Measurements as given in patent US5968791A, “Plant lysophosphatidic acid acyltransferases” (Calgene, Inc., priority 1995, dated 1999).

How the values were obtained:
bay LPAAT = assay: LPAAT activity assay, California bay P2 membrane preparation; format: biochemical, Umbellularia californica; settings: P2 membrane preparation; acyl-CoA donor varied, acceptor 12:0-LPA
Protocol: To assay for LPAAT activity, the sample is incubated with lysophosphatidic acid (LPA) and acyl-coenzyme A (acyl-CoA) substrates in buffered solution. The acyl substituents of the two substrates are chosen to correspond with the specificity of the enzyme being measured. […] The acyl group of one substrate is radioactively labeled in order to detect the product formed. In the examples which follow the acyl substituent of the acyl-CoA substrate is radiolabeled with ^14 C in the carboxyl group. LPAAT activity results in transfer of this acyl group from the acyl-CoA "donor" substrate to the LPA "acceptor" substrate, converting the latter into the product, phosphatidic acid (PA). LPAAT activity is measured as the amount of radioactive product formed in a given assay time. The PA product is radioactive as a result of the transferred radiolabeled acyl group at the central carbon atom of the molecule, and the quantity of PA formed may be determined by measuring radioactivity of the PA fraction. For this measurement, the PA is first separated from the acyl-CoA substrate by solvent partitioning, or by thin-layer chromatography (TLC).
20 μl of the sample to be assayed for LPAAT activity is mixed with 217.5 μl of an assay ingredient mixture in a 4-ml, screw-cap vial. […] The incubation takes place in a water bath at 30° C., for 20-30 minutes.
To stop the assay, 0.25 ml of 1M KCl in 0.2M H3 PO4 is added to the vial. At this point, 40 μl BSA (bovine serum albumin, fraction V) at 1 mg/ml are added, followed by 0.75 ml of a solution of 67 μg/ml unlabeled PA (acting as a "carrier" to facilitate partitioning) in chloroform/methanol (2:1, v/v). The chain lengths of the PA acyl groups are chosen to correspond to those used in the assay substrates. Upon thorough mixing of these components the radiolabeled PA product of the LPAAT reaction partitions into the organic phase and away from the unreacted acyl-CoA and LPA. The vial is centrifuged briefly at low speed to facilitate the separation of organic (lower) and aqueous (upper) phases. The aqueous phase is then removed and discarded. The total radioactivity extracted into the organic phase is determined by liquid scintillation counting; a 100 μl sample of the organic phase is transferred to a 20 ml scintillation vial and allowed to dry, and scintillation fluid (3-5 ml) is added to the vial. The radioactivity of the sample, after subtraction of the "minus-enzyme" or "minus-LPA" radioactivities, is taken as an approximate indication of the amount of PA formed in the LPAAT-catalyzed reaction and therefore of LPAAT activity.
A more accurate estimation of the LPAAT activity may be obtained by separating the PA product from these contaminants by TLC. The remaining organic phase is applied to a silica TLC plate. Ascending chromatography is carried out for 50 minutes, using the solvent mixture chloroform/pyridine/88% formic acid (50:30:7, v/v). After the plate has dried, the distribution of radioactivity is visualized and quantitated using an AMBIS radioanalytic imaging system (AMBIS Systems Inc., San Diego, Calif.). From prior application of standard lipid components the Rf of the PA is known. The radioactivity associated with the PA spot is expressed as a percentage of the total radioactivity of the assay sample loaded on the plate. This ratio provides an indication of the proportion of the scintillation counts which represent the PA product, and may be used to correct the counts to obtain the total PA radioactivity formed in the assay.

[1] = target: T1, coconut medium-chain LPAAT (Cocos nucifera, UniProt Q42670); assay: Assay of solubilized coconut LPAAT (S3 preparation) with phospholipid activation; format: biochemical; settings: radioactivity of PA product resolved on TLC, after 30 min assay; S3 reactivated with PLs; acceptor 12:0-LPA
T1 construct: The frozen coconut P2 preparation is thawed and diluted in a volume of P2 Buffer; from tissue; host or cells: immature coconut endosperm, solubilized S3 supernatant of P2 membranes
T1 sequence (Q42670 1-308): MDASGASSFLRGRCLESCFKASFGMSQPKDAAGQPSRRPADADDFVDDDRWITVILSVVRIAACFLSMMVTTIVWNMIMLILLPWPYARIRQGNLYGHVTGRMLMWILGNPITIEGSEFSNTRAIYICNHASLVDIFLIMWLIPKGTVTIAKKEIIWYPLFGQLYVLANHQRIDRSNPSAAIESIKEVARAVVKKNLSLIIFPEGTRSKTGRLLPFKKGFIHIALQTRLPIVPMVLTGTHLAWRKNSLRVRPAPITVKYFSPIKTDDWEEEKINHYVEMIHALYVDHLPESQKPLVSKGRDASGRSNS
Protocol: After solubilization of LPAAT protein from plant membranes as described below, modification of the above assay conditions is required in order to detect maximum LPAAT activity. This is especially important after the solubilized LPAAT has been chromatographed on at least one column. The important modification to the assay is the addition, at the start of the assay procedure, of 1 μl of a concentrated phospholipid (PL) solution to 20 μl of the LPAAT-containing sample in a glass vial. The high concentrations of CHAPS (at least 1% w/v) and NaCl (typically 0.5M or greater) in the solubilized LPAAT preparation aid in dispersal of the phospholipids. The phospholipid solution is obtained by sonicating crude soybean phospholipids (L-phosphatidylcholine from soybean, "Type IVs" obtained from Sigma Chemical Company, St. Louis) at 50 mg/ml in 0.5% (w/v) CHAPS (3-[(3-cholamidopropyl) -dimethylammonio]-1-propane-sulfonate) until a uniform suspension is obtained.
The remaining assay ingredients (as described above), with the exception of the acyl-CoA substrate, are then added as 219 μl of a mixture. […] Radiolabeled acyl-CoA (10 μl, or an appropriately adjusted volume as indicated above) is added to start the LPAAT-catalyzed reaction and the rest of the assay procedure is completed as described above.
All steps are carried out at 0-4° C. The frozen coconut P2 preparation is thawed and diluted in a volume of P2 Buffer to achieve a protein concentration of 0.94 mg/ml P2 protein. Protein concentration is determined by Coomassie dye staining relative to a bovine serum albumin standard. The P2 membrane suspension is then diluted with an equal volume of Solubilization Buffer (50 mM HEPES-NaOH, pH 7.5, […], 20% (w/v) glycerol, 4.5% (w/v) CHAPS, 100 μM Pefabloc, 1 μM leupeptin, 1 μM Pepstatin A, and 5 mM β-ME), resulting in final concentrations of 1M NaCl, 2.25% (w/v) detergent, and 0.47 mg/ml protein. These component concentrations, and the resulting detergent/protein ratio of 48/1 (w/w), are important for optimal solubilization. The preparation is then incubated on ice for 30 minutes with occasional, gentle stirring, followed by centrifugation at 252,000×g for 2 hours. The resulting supernatant fraction (S3) is filtered through buffer-wetted Miracloth, and may then be stored frozen (-70) with only slight loss of activity. Optimally, it is applied to chromatography columns without an intervening freeze-thaw cycle.
Assay of the coconut medium-chain LPAAT activity after solubilization (S3 preparation) and reactivation with PLs, using different acyl-CoA substrates, provides the following results (Table 3). In all these assays the acceptor substrate is 12:0-LPA.

control rapeseed LPAAT = assay: LPAAT acyl-CoA specificity, control P2 preparation; format: biochemical; settings: acyl-CoA donor varied at 5 μM, acceptor 12:0-LPA; 30 minute reaction
Protocol: Detailed acyl-CoA chain-length specificity analysis of control P2 preparations and LPAAT-transformed line 5511-5 were determined as described above, using the original 30 minute reaction time. The acyl-CoA substrates for this analysis are present in methanol, and thus the assay also had the following modifications. The first solution placed in the assay vial was the volume of each radiolabeled acyl-CoA required for 5 μM final assay concentration. […] After mixing to redissolve the acyl-CoA off the vial wall, the reaction is started by addition of 25 μl of a 5-fold diluted P2 preparation and continued as before. Acyl-CoA substrates used in this analysis were 8:0, 10:0, 12:0, 14:0, 16:0, 18:0, and 18:1. The acceptor substrate in these assays was 12:0-LPA.

| SMILES | LPAAT Activity from Bay (bay LPAAT) | LPAAT Activity, solubilized coconut LPAAT [1] | Cpm PA Product, Control (control rapeseed LPAAT) |
| --- | --- | --- | --- |
| CCCCCCCC(=O)SCCNC(=O)CCNC(=O)[C@H](O)C(C)(C)COP(=O)(O)OP(=O)(O)OC[C@H]1O[C@@H](n2cnc3c(N)ncnc32)[C@H](O)[C@@H]1OP(=O)(O)O [8:0] | 13 pmol PA formed/30 min assay | 16 cpm | 149 Cpm |
| CCCCCCCCCC(=O)SCCNC(=O)CCNC(=O)[C@H](O)C(C)(C)COP(=O)(O)OP(=O)(O)OC[C@H]1O[C@@H](n2cnc3c(N)ncnc32)[C@H](O)[C@@H]1OP(=O)(O)O [10:0] | 10 pmol PA formed/30 min assay | 162 cpm | 831 Cpm |
| CCCCCCCCCCCC(=O)SCCNC(=O)CCNC(=O)[C@H](O)C(C)(C)COP(=O)(O)OP(=O)(O)OC[C@H]1O[C@@H](n2cnc3c(N)ncnc32)[C@H](O)[C@@H]1OP(=O)(O)O [12:0, lauroyl-CoA] | 14 pmol PA formed/30 min assay | 205 cpm | 1758 Cpm |
| CCCCCCCCCCCCCC(=O)SCCNC(=O)CCNC(=O)[C@H](O)C(C)(C)COP(=O)(O)OP(=O)(O)OC[C@H]1O[C@@H](n2cnc3c(N)ncnc32)[C@H](O)[C@@H]1OP(=O)(O)O [14:0] | 5 pmol PA formed/30 min assay | 84 cpm | 1544 Cpm |
| CCCCCCCCCCCCCCCC(=O)SCCNC(=O)CCNC(=O)[C@H](O)C(C)(C)COP(=O)(O)OP(=O)(O)OC[C@H]1O[C@@H](n2cnc3c(N)ncnc32)[C@H](O)[C@@H]1OP(=O)(O)O [16:0] | 6 pmol PA formed/30 min assay | 18 cpm | 3034 Cpm |
| CCCCCCCC/C=C\CCCCCCCC(=O)SCCNC(=O)CCNC(=O)[C@H](O)C(C)(C)COP(=O)(O)OP(=O)(O)OC[C@H]1O[C@@H](n2cnc3c(N)ncnc32)[C@H](O)[C@@H]1OP(=O)(O)O [18:1, oleoyl-CoA] | 5 pmol PA formed/30 min assay | 30 cpm | 7946 Cpm |
